ChEMBL document CHEMBL1201862, “PubChem BioAssay data set” (2004)
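The compound was tested at five concentrations on cells cultured in 96-well plates, with a 48-hour exposure period. GI50: concentration for 50% inhibition of growth.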 Activity calls are given as the source filed them. Cut-off read from the data, not from the text of the source: active = GI50 up to about 1.1 µM and inactive = higher.

Assays:
Experiment in all cases: NCI anticancer screen, dose series, 48 h
HL-60 = tested on: HL-60
NCI-H460 = tested on: NCI-H460
IGROV-1 = tested on: IGROV-1
K562 = tested on: K562
PC-3 = tested on: PC-3
HCT-116 = tested on: HCT-116
SK-MEL-5 = tested on: SK-MEL-5
OVCAR-8 = tested on: OVCAR-8
A498 = tested on: A498
A549 = tested on: A549
MCF7 = tested on: MCF7
COLO 205 = tested on: COLO 205
SK-OV-3 = tested on: SK-OV-3
SF-295 = tested on: SF-295
M14 = tested on: M14
SN12C = tested on: SN12C
DU-145 = tested on: DU-145
UACC-62 = tested on: UACC-62
HT-29 = tested on: HT-29
SR = tested on: SR
LOX IMVI = tested on: LOX IMVI
NCI-H23 = tested on: NCI-H23
CCRF-CEM = tested on: CCRF-CEM
OVCAR-3 = tested on: OVCAR-3
HOP-62 = tested on: HOP-62
SF-268 = tested on: SF-268
NCI-H522 = tested on: NCI-H522
HCT-15 = tested on: HCT-15
NCI/ADR-RES = tested on: NCI/ADR-RES
Malme-3M = tested on: Malme-3M
UO-31 = tested on: UO-31
Hs-578T = tested on: Hs-578T
OVCAR-4 = tested on: OVCAR-4
RPMI-8226 = tested on: RPMI-8226
SK-MEL-28 = tested on: SK-MEL-28
HOP-92 = tested on: HOP-92
SNB-19 = tested on: SNB-19
SW-620 = tested on: SW-620
MDA-MB-231 = tested on: MDA-MB-231
MDA-MB-435 = tested on: MDA-MB-435
U-251 = tested on: U-251
786-0 = tested on: 786-0
KM12 = tested on: KM12
SK-MEL-2 = tested on: SK-MEL-2
OVCAR-5 = tested on: OVCAR-5
TK-10 = tested on: TK-10
NCI-H226 = tested on: NCI-H226
SNB-75 = tested on: SNB-75
ACHN = tested on: ACHN
EKVX = tested on: EKVX
MDA-N = tested on: MDA-N
MOLT-4 = tested on: MOLT-4

For CC(=O)OCC1OC(n2c(-c3ccc(C)cc3)cc(-c3ccco3)c(C#N)c2=O)C(OC(C)=O)C(OC(C)=O)C1OC(C)=O (stereo not drawn), which GI50 (HL-60) is on record?
Its GI50 is 2.72 µM (inactive).

What about the GI50 (NCI-H460) of the same compound?
Its GI50 is 2.59 µM (inactive).

How did the GI50 (IGROV-1) turn out when N=C(N)NCCCC(NC(=O)c1cccc2c(=O)c3ccccc3[nH]c12)C(=O)O (stereo not drawn) was run?
Its GI50 is > 100 µM (inactive).

And the GI50 (K562)?
Its GI50 is > 100 µM (inactive).

What about the GI50 (PC-3) of the same compound?
Its GI50 is > 100 µM (inactive).

What about the GI50 (HCT-116) of the same compound?
The GI50 was > 100 µM (inactive).

And the GI50 (SK-MEL-5)?
Its GI50 is > 100 µM (inactive).

And the GI50 (OVCAR-8)?
Its GI50 is > 100 µM (inactive).

And the GI50 (A498)?
Its GI50 is > 100 µM (inactive).

And the GI50 (A549)?
Its GI50 is > 100 µM (inactive).

And the GI50 (MCF7)?
The GI50 was > 100 µM (inactive).

And the GI50 (COLO 205)?
The GI50 was > 100 µM (inactive).

What about the GI50 (SK-OV-3) of the same compound?
Its GI50 is > 100 µM (inactive).

What about the GI50 (SF-295) of the same compound?
The GI50 was > 100 µM (inactive).

What about the GI50 (M14) of the same compound?
The GI50 was > 100 µM (inactive).

What about the GI50 (SN12C) of the same compound?
Its GI50 is > 100 µM (inactive).

What about the GI50 (DU-145) of the same compound?
The GI50 was > 100 µM (inactive).

What about the GI50 (UACC-62) of the same compound?
The GI50 was > 100 µM (inactive).

And the GI50 (HT-29)?
Its GI50 is > 100 µM (inactive).

And the GI50 (SR)?
Its GI50 is > 100 µM (inactive).

What about the GI50 (LOX IMVI) of the same compound?
Its GI50 is > 100 µM (inactive).

And the GI50 (NCI-H23)?
The GI50 was > 100 µM (inactive).

What about the GI50 (CCRF-CEM) of the same compound?
The GI50 was > 100 µM (inactive).

What about the GI50 (OVCAR-3) of the same compound?
The GI50 was > 100 µM (inactive).

What about the GI50 (HOP-62) of the same compound?
The GI50 was > 100 µM (inactive).

What about the GI50 (SF-268) of the same compound?
Its GI50 is > 100 µM (inactive).

And the GI50 (NCI-H522)?
The GI50 was > 100 µM (inactive).

And the GI50 (HCT-15)?
Its GI50 is over 100 µM.

What about the GI50 (NCI/ADR-RES) of the same compound?
The GI50 was > 100 µM (inactive).

What about the GI50 (HL-60) of the same compound?
Its GI50 is > 100 µM (inactive).

And the GI50 (Malme-3M)?
The GI50 was > 100 µM (inactive).

And the GI50 (UO-31)?
The GI50 was > 100 µM (inactive).

And the GI50 (Hs-578T)?
The GI50 was > 100 µM (inactive).

And the GI50 (OVCAR-4)?
Its GI50 is > 100 µM (inactive).

And the GI50 (RPMI-8226)?
The GI50 was > 100 µM (inactive).

And the GI50 (SK-MEL-28)?
Its GI50 is > 100 µM (inactive).

And the GI50 (HOP-92)?
The GI50 was 58.9 µM (inactive).

And the GI50 (SNB-19)?
The GI50 was > 100 µM (inactive).

And the GI50 (SW-620)?
The GI50 was > 100 µM (inactive).

What about the GI50 (MDA-MB-231) of the same compound?
The GI50 was > 100 µM (inactive).

What about the GI50 (MDA-MB-435) of the same compound?
Its GI50 is > 100 µM (inactive).

And the GI50 (U-251)?
The GI50 was > 100 µM (inactive).

And the GI50 (786-0)?
The GI50 was > 100 µM (inactive).

And the GI50 (KM12)?
The GI50 was > 100 µM (inactive).

And the GI50 (SK-MEL-2)?
The GI50 was > 100 µM (inactive).

And the GI50 (OVCAR-5)?
Its GI50 is > 100 µM (inactive).

And the GI50 (TK-10)?
Its GI50 is > 100 µM (inactive).

And the GI50 (NCI-H226)?
Its GI50 is > 100 µM (inactive).

What about the GI50 (SNB-75) of the same compound?
The GI50 was > 100 µM (inactive).

And the GI50 (ACHN)?
The GI50 was > 100 µM (inactive).

What about the GI50 (EKVX) of the same compound?
The GI50 was > 100 µM (inactive).

And the GI50 (MDA-N)?
The GI50 was > 100 µM (inactive).

And the GI50 (MOLT-4)?
Its GI50 is > 100 µM (inactive).
